# Data taken from article PMC12293736, “Discovery of N-(6-Methoxypyridin-3-yl)quinoline-2-amine Derivatives for Imaging Aggregated α-Synuclein in Parkinson’s Disease with Positron Emission Tomography” (Cells, 2025).
# Target: recombinant α-synuclein fibrils (Homo sapiens, UniProt P37840)
# Test: radioactive competitive binding assay with [^3H]BF2846 (Tables 1 and 2: or [^18F]7j with LBD-amplified fibrils)
# Details: Table 1; vs. [^3H]BF2846 or [^18F]7j as radioligand; NB = no binding affinity measurable; read-out: Ki
# Experimental: Three concentrations of the test compounds (10 nM, 100 nM, and 1 μM) were selected and individually mixed with [^3H]BF2846 (∼4 nM). Each mixture was then separately added to 50 nM of recombinant α-syn fibrils in a working buffer (50 mM Tris-HCl, 0.01% bovine serum albumin (BSA)). The mixture (150 μL) was gently mixed via agitation, covered, and then incubated at 37 °C for 1.5 h in a non-binding 96-well plate (Corning Inc., Corning, NY, USA; catalog no. 3605). The mixture was filtered through a Unifilter-96 harvesting system (PerkinElmer Inc., Waltham, MA, USA) and then washed three times with 250 μL of ice-cold buffer containing 10 mM Tris-HCl (pH 7.4), 15 mM NaCl, and 20% EtOH. Next, 50 μL of scintillation cocktail (MicroScint-20, PerkinElmer) was added to the collected filtrate and counted on a Microbeta system (PerkinElmer Inc., Waltham, MA, USA). The total binding was measured in the absence of the tested compounds, and non-specific binding was defined by the presence of 100 nM of unlabeled BF2846 in the working buffer.
# For the full curve of α-syn competition binding, [^3H]BF2846 (∼4 nM) was incubated with fixed concentrations of 50 nM α-syn fibrils and ten concentrations of the tested compounds (0.05−1000 nM). All data points were collected in three individual experiments. The equilibrium inhibition constants, Ki values, were obtained from EC50 values using the equation Ki = EC50/(1 + [radioligand]/Kd) via non-linear regression from GraphPad Prism v.9.3.1 (GraphPad Software, San Diego, CA, USA) […]
# In addition, competition assays were performed with LBD-amplified fibrils and [^18F]TZ61-44 with slight modifications. The method used to produce LBD-amplified fibrils is described by Dhavale et al., and the source of the tissue was the Banner Sun Health Research Institute Brain and Body Donation Program of Sun City, Arizona. Each test compound concentration (0.001–1 µM) was individually mixed with [^18F]TZ61-44 (2 nM), and the resulting mixture was then added to 25 nM of LBD-amplified fibrils in 30 mM of Tris-HCl buffer (pH 7.4) containing 0.1% BSA. The mix was incubated for 1 h with shaking. The samples were then transferred to Multiscreen FB filter plates (Catalog MSFBN6B50, MilliporeSigma) and washed three times with cold (4 °C) buffer. The glass fiber filters containing fibril-bound radioligands were removed and counted immediately in a PerkinElmer (1450-021) Trilux MicroBeta Liquid Scintillation counter using 150 µL of Optiphase Supermix cocktail (Perkin Elmer). All data points were obtained in triplicate. The data were analyzed using Graphpad Prism software (version 10) to the obtain EC50 and Ki values by fitting the data to a one-site competition model. The synthesis of the tested compounds is described in the Supporting Information. […]
# 6. Alpha-Synuclein Binding Affinity Studies a). Determination of α-synuclein binding activity using radioactive competitive assay [ 3H]BF2846 Three concentrations of test compounds (10nM, 100nM, and 1μM) were selected and individually mixed with [3H]BF2846 ( ∼4 nM). Each mixture was then separately added to 50 nM of recombinant α-syn fibrils in a working buffer (50 mM Tris-HCl, 0.01% bovine serum albumin (BSA)). The mixture (150 μL) was gently mixed by agitation, covered, and then incubated at 37°C for 1.5 h in a nonbinding 96 well plate (Corning, 3605). The mixture was filtered through a Unifilter – 96 harvesting system (PerkinElmer) and then washed three times with 250 μL of ice-cold buffer containing 10 mM Tris – HCl (pH7.4), 15mM NaCl, and 20% EtOH. 50μL of scintillation cocktail (MicroScint-20, PerkinElmer) was added to the collected filtrate and counted on a Microbeta system (PerkinElmer). Total binding was measured in the absence of tested compounds, and nonspecific binding was defined by the presence of 100 nM unlabeled BF2846 in the working buffer. The data analysis was carried out in the following equation and graphically presented with a heatmap. […]
row,Ki [nM],Structure (SMILES)
1,> 1000,COc1ccc(Nc2ccc3ncccc3c2)cn1 [Compound 3d]
2,> 1000,COc1ccc(Nc2ccc3ccncc3c2)cn1 [Compound 3f]
3,~100,COc1ccc(Nc2ccc3ccccc3n2)cn1 [Compound 3a]
4,> 1000,COc1ccc(Nc2ccc3cccnc3c2)cn1 [Compound 3g]
5,418,COc1ccc(Nc2cnc3ccccc3c2)cn1 [Compound 3c]
6,46,COc1ccc(Nc2ccc3cnccc3c2)cn1 [Compound 3e]

# Same assay, conditions: Table 2; [^3H]BF2846 or [^18F]7j indirect competitive binding assay; read-out: Ki
row,Ki [nM],Structure (SMILES)
1,65,COc1ccc(Nc2cc(F)c3ccccc3n2)cn1 [Compound 5b]
2,53,COc1ccc(Nc2ccc3ccc(F)cc3n2)cn1 [Compound 5e]
3,21,COc1ccc(Nc2ccc3cc([N+](=O)[O-])ccc3n2)cn1 [Compound 7a]
4,27,COc1ccc(Nc2ccc3cc(F)ccc3n2)cn1 [Compound 5d]
5,~100,COc1ccc(Nc2ccc3cc(OC(F)(F)F)ccc3n2)cn1 [Compound 7h]
6,33,COc1ccc(Nc2ccc3c(F)cccc3n2)cn1 [Compound 5c]
7,4.6,COc1ccc2nc(Nc3ccc(OC)nc3)ccc2c1 [Compound 7f]
8,41,COc1ccc(Nc2ccc3cccc(F)c3n2)cn1 [Compound 5f]
9,6.4,COc1ccc(Nc2ccc3cc(OCCF)ccc3n2)cn1 [Compound 7j]
10,23,COc1ccc(Nc2ccc3cc(OC(F)F)ccc3n2)cn1 [Compound 7g]
11,70,"COc1ccc(Nc2ccc3cc(O)ccc3n2)cn1 [Compound 7e, 2-((6-Methoxypyridin-3-yl)amino)quinolin-6-ol]"
12,82,COc1ccc(Nc2ccc3cc(N)ccc3n2)cn1 [Compound 7c]

row,Structure (SMILES),Ki [nM]
1,COc1ccc(Nc2ccc3cc(OS(=O)(=O)F)ccc3n2)cn1 [Compound 7i],320

# Same assay, conditions: Table 3; [^3H]BF2846 indirect competitive binding assay; read-out: Ki
row,Ki [nM],Structure (SMILES)
1,26.1,Cc1ccc(Nc2ccc3cc(OCCF)ccc3n2)cn1 [Compound 7s]
2,182,COc1ccc2nc(Nc3ccc(C(F)(F)F)nc3)ccc2c1 [Compound 7o]
3,> 500,COc1ccc(Nc2ccc3cc(OCC4COC4)ccc3n2)cn1 [Compound 8a]
4,50,COc1ccc(Nc2ccc3cc(OCCOCCF)ccc3n2)cn1 [Compound 7k]
5,> 500,FCCOc1ccc2nc(Nc3cccnc3)ccc2c1 [Compound 7t]
6,42,COc1ccc(Nc2ccc3cc(OCCOCCOCCOCCF)ccc3n2)cn1 [Compound 7m]
7,24,COc1ccc(Nc2ccc3cc(OCc4cccnc4)ccc3n2)cn1 [Compound 8e]
8,5,COc1ccc(Nc2ccc3cc(OC/C=C/I)ccc3n2)cn1 [Compound 8i]
9,397,COc1ccc2nc(Nc3ccc(F)nc3)ccc2c1 [Compound 7n]
10,47.7,COc1ccc(Nc2ccc3cc(OCc4ccccc4)ccc3n2)cn1 [Compound 8c]
11,197,COc1ccc2nc(Nc3ccc(SC)nc3)ccc2c1 [Compound 7r]
12,36,COc1cccc(COc2ccc3nc(Nc4ccc(OC)nc4)ccc3c2)c1 [Compound 8g]
13,> 500,COc1ccc(Nc2ccc3cc(OCC4CCCCC4)ccc3n2)cn1 [Compound 8b]
14,49,COc1ccc(Nc2ccc3cc(OCCOCCOCCF)ccc3n2)cn1 [Compound 7l]
15,10,COc1ccc2nc(Nc3ccc(OC(F)(F)F)nc3)ccc2c1 [Compound 7q]
16,> 1000,COc1ccc(Nc2ccc3nc(Nc4ccc(OC)nc4)ccc3c2)cn1 [Compound 8j]
17,66.3,COc1ccc(Nc2ccc3cc(OCc4ccc(F)cc4)ccc3n2)cn1 [Compound 8h]
18,20,COc1ccc(COc2ccc3nc(Nc4ccc(OC)nc4)ccc3c2)cc1 [Compound 8f]
19,81,FCCOc1ccc2nc(Nc3ccc(C(F)(F)F)nc3)ccc2c1 [Compound 7p]
20,44.6,COc1ccc(Nc2ccc3cc(OCC(F)(F)F)ccc3n2)cn1 [Compound 7u]

# Same assay, conditions: [^3H]BF2846 competitive assay; read-out: Ki value for α-synuclein fibrils
row,Ki [nM],Structure (SMILES)
1,100,COc1ccc(Nc2ccc3ccccc3n2)cn1 [Compound 3a]
2,100,COc1ccc(Nc2ccc3cc(OC(F)(F)F)ccc3n2)cn1 [Compound 7h]
